Test results as given in patent US20110033387A1, “METHOD OF DETERMINATION OF PDH ACTIVITY AND IMAGING MEDIA FOR USE IN SAID METHOD” (GE HEALTHCARE LIMITED, priority 2007, published 2011).

How the values were obtained:
[1] = test system: PDH; assay: PDH activity by 13C-MR detection (13C-bicarbonate to 13C-pyruvate ratio) in STZ Type 1 diabetes model; assay type: in vivo, male Wistar rats; details: single i.p. injection 50 mg/kg, five days after induction, rat heart, each rat its own control
Procedure: Initial PDH activity (baseline) was determined in a first group of 6 rats according to Example 3. […] Five days after STZ-diabetes induction, PDH activity was determined again, each rat served as its own experimental control.
(§1) All rats were anaesthetised using isofluorane (2% in oxygen) and kept on a heated mat. Care was taken to maintain body temperature at 37° C. A catheter was introduced into the tail vein, and rats were then placed in a home-built animal handling system. ECG, respiration rate, and body temperature were monitored, and air heating was provided. Anaesthesia was continued by means of isofluorane (1.7%) delivered to a nose cone.
1 cm^3 of the imaging medium as prepared in Example 1 was injected over 10 s via the tail vein catheter in the anaesthetised rat. […]
(§2) The series of cardiac ^13C MR spectra were analysed using the AMARES algorithm as implemented in the jMRUI software package (Naressi et al., Computers in Biology and Medicine, 31(4), 2001, 269-286 and Naressi et al., Magnetic Resonance Materials in Physics, Biology and Medicine, 12(2-3), 2001, 141-152). […]
Maximum pyruvate peak area was calculated for each series of spectra, and was used to calculate maximum bicarbonate/pyruvate ratio. […] Parameters describing the kinetic progression of bicarbonate, namely time to appearance, time to maximum, and decay time to half maximum were also calculated.

[2] = T1 relaxation of 13C1-pyruvate in human full blood; assay type: physicochemical; details: human full blood at 37° C.
[3] = test system: PDH; assay: PDH flux by cardiac 13C-MR with imaging medium with or without malate, fed and fasted rats; assay type: in vivo, male Wistar rats; details: 40 μmol hyperpolarised 13C-pyruvate alone, fasted vs fed rats
Procedure: as §1
A home-built ^1H/^13C butterfly coil was fit over the rat chest, localising signal from the heart. Rats were positioned in a 7 T horizontal bore MR scanner interfaced to a Varian Inova console. Correct positioning was confirmed by the acquisition of an axial proton FLASH image (TE/TR=1.17/2.33 ms, Matrix size=64×64, FOV=60×60 mm, Slice thickness=2.5 mm, Excitation flip angle=15°). […]
as §2
Maximum pyruvate peak area was calculated for each series of spectra, and was used to calculate maximum bicarbonate/pyruvate ratio. […] Parameters describing the kinetic progression of bicarbonate, namely time to appearance, time to maximum, and decay time to half maximum were also calculated. […]

Row | T1 relaxation [2] | SMILES | ratio of the 13C-bicarbonate to 13C-pyruvate peak amplitude / PDH activity, before vs after STZ injection [1] | PDH flux lower in fasted rats compared with fed rats [3] [%]
1 | – | CN(N=O)C(=O)N[C@H]1C(O)O[C@H](CO)[C@@H](O)[C@@H]1O (mixture of isomers) [STZ, Streptozotocin] | decrease in PDH activity | –
2 | about 42 s | CC(=O)C(=O)O [^13C1-pyruvate, sodium ^13C1-pyruvate] | – | 55
